Literature values, collected in US8455478B2, “Rapid onset liquid midazolam composition for buccal administration” (Special Products, Ltd., priority 2010, dated 2013).

Settings: pH 8, aqueous solution

Cc1ncc2n1-c1ccc(Cl)cc1C(c1ccccc1F)=NC2 [midazolam, 8-chloro-6-(2-fluorophenyl)-1-methyl-4H-imidazo[1,5-a][1,4]]
solubility of midazolam: 55 µg/mL
